Assay results published in PubChem BioAssay AID248 (DTP/NCI, 2004).
Values joined by “and” are separate entries in the source; they are usually repeats but may differ in a detail not shown here. Equal values may be shown once. Inconclusive results and toxic doses are left out. Cut-off read from the data, not from the text of the source: active = T/C of 150% or more; inactive = T/C below 125%.

Test system: L1210 leukemia ip in BDF1 mice, survival T/C
Assay: NCI In Vivo Anticancer Drug Screen. Data for tumor model L1210 Leukemia (intraperitoneal) in B6D2F1 (BDF1) mice
Conditions: endpoint: mean survival time, higher = longer survival
Procedure, shortened: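 Antitumor effect is assessed in tumor-bearing animals. Survival in the compound arm is compared with a vehicle-dosed control arm and expressed as their quotient.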

[1] = dose: 100.0 mg/kg/injection, schedule: Q04DX003 (ip), vehicle: saline
[2] = dose: 200.0 mg/kg/injection, schedule: Q04DX003 (ip), vehicle: saline
[3] = dose: 50.0 mg/kg/injection, schedule: Q01DX009 (ip), vehicle: saline
[4] = dose: 100.0 mg/kg/injection, schedule: Q01DX009 (ip), vehicle: saline
[5] = dose: 400.0 mg/kg/injection, schedule: Q04DX003 (ip), vehicle: saline
[6] = dose: 100.0 mg/kg/injection, schedule: Q04DX003 (ip), vehicle: saline with Tween-80
[7] = dose: 200.0 mg/kg/injection, schedule: Q04DX003 (ip), vehicle: saline with Tween-80
[8] = dose: 100.0 mg/kg/injection, schedule: Q04DX003 (ip), vehicle: Klucel (hydroxypropylcellulose) (HPC)
[9] = dose: 200.0 mg/kg/injection, schedule: Q04DX003 (ip), vehicle: Klucel (hydroxypropylcellulose) (HPC)
[10] = dose: 400.0 mg/kg/injection, schedule: Q04DX003 (ip), vehicle: Klucel (hydroxypropylcellulose) (HPC)
[11] = dose: 100.0 mg/kg/injection, schedule: Q01DX001 (ip), vehicle: saline
[12] = dose: 200.0 mg/kg/injection, schedule: Q01DX001 (ip), vehicle: saline
[13] = dose: 400.0 mg/kg/injection, schedule: Q01DX001 (ip), vehicle: saline
[14] = dose: 100.0 mg/kg/injection, schedule: Q01DX009 (ip), vehicle: Klucel (hydroxypropylcellulose) (HPC)

Measured: T/C

O=C(CC(O)(C(F)(F)F)C(F)(F)F)c1ccccc1[N+](=O)[O-]
inactive: dose: 12.5 mg/kg/injection, schedule: Q01DX009 (ip), vehicle: DMSO 94 % of control | dose: 12.5 mg/kg/injection, schedule: Q04DX003 (ip), vehicle: DMSO 97 % of control | dose: 25.0 mg/kg/injection, schedule: Q01DX009 (ip), vehicle: DMSO 86 % of control | dose: 25.0 mg/kg/injection, schedule: Q04DX003 (ip), vehicle: DMSO 95 % of control | dose: 50.0 mg/kg/injection, schedule: Q04DX003 (ip), vehicle: DMSO 110 % of control | dose: 100.0 mg/kg/injection, schedule: Q04DX003 (ip), vehicle: DMSO 102 % of control

O=C1OC(c2ccc(Cl)cc2)=N/C1=C\c1ccc(Cl)cc1
inactive: dose: 100.0 mg/kg/injection, schedule: Q01DX009 (ip), vehicle: saline with Tween-80 91 % of control | dose: 200.0 mg/kg/injection, schedule: Q01DX009 (ip), vehicle: saline with Tween-80 94 % of control | dose: 400.0 mg/kg/injection, schedule: Q01DX009 (ip), vehicle: saline with Tween-80 91 % of control

O=C1C=C2CCN(Cc3ccccc3)CC2CC1 (centres undefined)
inactive: dose: 100.0 mg/kg/injection, schedule: Q01DX001 (ip), vehicle: acetone 97 % of control | [1] 104 % of control | dose: 200.0 mg/kg/injection, schedule: Q01DX001 (ip), vehicle: acetone 102 % of control | [2] 101 % of control | dose: 400.0 mg/kg/injection, schedule: Q01DX001 (ip), vehicle: acetone 98 % of control

CCCCOP(=O)(OCCCC)[O][Pb]([CH2]C)([CH2]C)[CH2]C
inactive: dose: 3.13 mg/kg/injection, schedule: Q01DX009 (ip), vehicle: saline with Tween-80 101 % of control | dose: 6.25 mg/kg/injection, schedule: Q01DX009 (ip), vehicle: saline with Tween-80 91 % of control

O=[N+]([O-])c1cccc(O)c1
inactive: [3] 99 % of control | [4] 92 % of control | dose: 100.0 mg/kg/injection, schedule: Q04DX003 (ip), vehicle: other 106 % of control | dose: 200.0 mg/kg/injection, schedule: Q01DX009 (ip), vehicle: saline 115 % of control | dose: 200.0 mg/kg/injection, schedule: Q04DX003 (ip), vehicle: other 112 % of control

CCCCCCCCCCCCCCCCCCCCC(C(=O)O)S(=O)(=O)O (centres undefined)
inactive: [1] 95 % of control | [5] 96 % of control

O=C(NC1CCCCC1c1ccccc1)c1ccccc1 (centres undefined)
inactive: dose: 75.0 mg/kg/injection, schedule: Q01DX001 (ip), vehicle: carboxymethylcellulose (CMC) 97 % of control and 95 % of control | dose: 150.0 mg/kg/injection, schedule: Q01DX001 (ip), vehicle: carboxymethylcellulose (CMC) 97 % of control and 91 % of control | dose: 300.0 mg/kg/injection, schedule: Q01DX001 (ip), vehicle: carboxymethylcellulose (CMC) 94 % of control and 89 % of control

COc1cc(C(=O)O)ccc1[N+](=O)[O-]
inactive: [6] 102 % of control | [7] 102 % of control | dose: 400.0 mg/kg/injection, schedule: Q04DX003 (ip), vehicle: saline with Tween-80 96 % of control

O=C(Nc1ccc(Br)cc1)Nc1cc([N+](=O)[O-])ccc1F
inactive: [8] 89 % of control | [9] 91 % of control | [10] 102 % of control

OC1CC2C3CCC(C3)C2C1O (centres undefined)
inactive: [6] 106 % of control | [7] 90 % of control

O=C(OC1C=CCC1)c1ccc([N+](=O)[O-])cc1 (centres undefined)
inactive: [8] 97 % of control | [9] 93 % of control | [10] 93 % of control

CC(=O)OCCN1CCC(n2ccc(=O)[nH]c2=O)C1=O (centres undefined)
inactive: [1] 104 % of control | [2] 104 % of control | [5] 106 % of control

CC(=O)Oc1c2ccccc2cc2c1ccc1ccccc12
inactive: dose: 100.0 mg/kg/injection, schedule: Q04DX002 (ip), vehicle: Klucel (hydroxypropylcellulose) (HPC) 119 % of control | dose: 200.0 mg/kg/injection, schedule: Q04DX002 (ip), vehicle: Klucel (hydroxypropylcellulose) (HPC) 100 % of control | dose: 400.0 mg/kg/injection, schedule: Q04DX002 (ip), vehicle: Klucel (hydroxypropylcellulose) (HPC) 106 % of control

CCCCCCCCC(=O)N(C)CCO
inactive: dose: 25.0 mg/kg/injection, schedule: Q01DX009 (ip), vehicle: saline 104 % of control | [3] 96 % of control | [4] 100 % of control | [1] 109 % of control | [7] 95 % of control | [2] 98 % of control

C=CCn1c(=O)n(CC=C)c(=O)n(CC=C)c1=O
inactive: [11] 108 % of control | dose: 100.0 mg/kg/injection, schedule: Q04DX003 (ip), vehicle: carboxymethylcellulose (CMC) 106 % of control | [12] 102 % of control | dose: 200.0 mg/kg/injection, schedule: Q04DX003 (ip), vehicle: carboxymethylcellulose (CMC) 92 % of control | [13] 104 % of control | dose: 400.0 mg/kg/injection, schedule: Q04DX003 (ip), vehicle: carboxymethylcellulose (CMC) 95 % of control

CSc1ccccc1C1CCCCCC1OS(C)(=O)=O (centres undefined)
inactive: dose: 12.5 mg/kg/injection, schedule: Q04DX003 (ip), vehicle: Klucel (hydroxypropylcellulose) (HPC) 109 % of control | dose: 25.0 mg/kg/injection, schedule: Q01DX009 (ip), vehicle: Klucel (hydroxypropylcellulose) (HPC) 109 % of control | dose: 25.0 mg/kg/injection, schedule: Q04DX003 (ip), vehicle: Klucel (hydroxypropylcellulose) (HPC) 106 % of control | dose: 50.0 mg/kg/injection, schedule: Q01DX009 (ip), vehicle: Klucel (hydroxypropylcellulose) (HPC) 107 % of control | dose: 50.0 mg/kg/injection, schedule: Q04DX003 (ip), vehicle: Klucel (hydroxypropylcellulose) (HPC) 102 % of control | dose: 100.0 mg/kg/injection, schedule: Q01DX001 (ip), vehicle: Klucel (hydroxypropylcellulose) (HPC) 105 % of control | [14] 102 % of control | [8] 107 % of control

OC1COC(n2cnc3c(=S)nc[nH]c32)CC1O (centres undefined)
inactive: dose: 5.0 mg/kg/injection, schedule: Q01DX001 (ip), vehicle: saline 100 % of control | dose: 10.0 mg/kg/injection, schedule: Q01DX001 (ip), vehicle: saline 103 % of control | dose: 20.0 mg/kg/injection, schedule: Q01DX001 (ip), vehicle: saline 100 % of control | dose: 40.0 mg/kg/injection, schedule: Q01DX001 (ip), vehicle: saline 95 % of control | [11] 107 % of control | [12] 108 % of control | [13] 124 % of control

Cc1cccc(C)c1NC(=O)Oc1ccccc1C(N)=O
inactive: [14] 97 % of control | [8] 98 % of control | dose: 200.0 mg/kg/injection, schedule: Q01DX009 (ip), vehicle: Klucel (hydroxypropylcellulose) (HPC) 100 % of control | [9] 104 % of control | [10] 94 % of control

CCCCCO/N=C\c1c2c(O)c3c(O)c(C)c4c(c3c1O)C(=O)C(C)(O/C=C\C(OC)C(C)C(OC(C)=O)C(C)C(O)C(C)C(O)C(C)/C=C\C=C(\C)C(=O)N2)O4 (centres undefined)
inactive: dose: 50.0 mg/kg/injection, schedule: Q04DX003 (ip), vehicle: water 100 % of control | dose: 100.0 mg/kg/injection, schedule: Q04DX003 (ip), vehicle: water 94 % of control | dose: 200.0 mg/kg/injection, schedule: Q04DX003 (ip), vehicle: water 100 % of control | dose: 400.0 mg/kg/injection, schedule: Q04DX003 (ip), vehicle: water 102 % of control
